Assay results taken from patent US11214594B2, “Antimicrobial peptide having synergistic antibacterial effect with antibiotics on multidrug resistant bacteria, and use thereof” (priority 2016, dated 2022).
Converted amounts (≈) assume the structure as drawn. “And” between values parts separate entries of the source, which are not always exact repeats. Identical values can stand only once. Like-named read-outs stand apart in the source and are kept apart here. Where a SMILES comes first, the peptide text is derived from it.

Legend:
[1] = system: MDREC 1238; assay type: cell-based, Escherichia coli
Summary of the method: (§1)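 Peptides were serially diluted twofold in Mueller-Hinton medium and combined 1:1 with bacterial suspensions prepared at 2×10^6 CFU. Readout was the minimal inhibitory concentration, i.e. the lowest concentration with no growth.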

[2] = system: P. aeruginosa; assay: microbe, parasite or virus in culture; assay type: cell-based, Pseudomonas aeruginosa
Summary of the method: as §1

[3] = system: MDRPA 2002; assay type: cell-based, Pseudomonas aeruginosa
Summary of the method: as §1

[4] = system: MDRPA 2003; assay type: cell-based, Pseudomonas aeruginosa
Summary of the method: as §1

[5] = system: A. baumannii; assay: microbe, parasite or virus in culture; assay type: cell-based, Acinetobacter baumannii
Summary of the method: as §1

[6] = system: MDRAB 12035; assay: microbe, parasite or virus in culture; assay type: cell-based, Acinetobacter baumannii
Summary of the method: as §1

[7] = system: MDRAB 12036; assay type: cell-based, Acinetobacter baumannii
Summary of the method: as §1

[8] = system: S. typhimurium; assay: microbe, parasite or virus in culture; assay type: cell-based, Salmonella typhimurium
Summary of the method: as §1

[9] = system: MDRST 8007; assay: Minimal inhibitory concentration (MIC), single agent; assay type: cell-based, Salmonella typhimurium; settings: agent alone
Summary of the method: as §1

[10] = system: B. subtilis; assay: microbe, parasite or virus in culture; assay type: cell-based, Bacillus subtilis
Summary of the method: as §1

[11] = system: S. epidermidis; assay: microbe, parasite or virus in culture; assay type: cell-based, Staphylococcus epidermidis
Summary of the method: as §1

[12] = system: S. aureus; assay: microbe, parasite or virus in culture; assay type: cell-based, Staphylococcus aureus
Summary of the method: as §1

[13] = system: MRSA 3114; assay type: cell-based, Staphylococcus aureus; settings: 3114
Summary of the method: as §1

[14] = system: MRSA 3126; assay type: cell-based, Staphylococcus aureus; settings: 3126
Summary of the method: as §1

[15] = system: MDREC 1229; assay: MIC of antibiotic during combined treatment with antimicrobial peptide; assay type: cell-based, Escherichia coli
Summary of the method: (§2)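 Antibiotic MIC came from antibiotic dilutions added to bacteria (2×10^6 CFU/ml, MH medium) already combined with peptide serially diluted 2:1 from its own MIC. Swapping the roles of the two agents gave the peptide MIC.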

[16] = system: MDRAB 12035; assay: as above; assay type: cell-based, Acinetobacter baumannii
Summary of the method: as §2

[17] = system: E. coli; assay type: cell-based, Escherichia coli; settings: E. coli
Summary of the method: as §2

[18] = system: MDREC 1229; assay type: cell-based, Escherichia coli
Summary of the method: as §2

[19] = system: A. baumannii; assay: MIC of antimicrobial peptide during combined treatment with antibiotic; assay type: cell-based, Acinetobacter baumannii
Summary of the method: as §2

[20] = system: MDRAB 12035; assay: as above; assay type: cell-based, Acinetobacter baumannii
Summary of the method: as §2

[21] = peptide treatment concentration 1 μg/ml
[22] = peptide treatment concentration 2 μg/ml
[23] = peptide treatment concentration 4 μg/ml
[24] = peptide treatment concentration 6 μg/ml
[25] = peptide treatment concentration 8 μg/ml
[26] = peptide treatment concentration 16 μg/ml
[27] = peptide treatment concentration 32 μg/ml
[28] = peptide treatment concentration 64 μg/ml
[29] = with Erythromycin […] (Conc./MIC 1)
[30] = linezolid 64 μg/ml (Conc./MIC 1/8)
[31] = linezolid 512 μg/ml (Conc./MIC 1)
[32] = vancomycin 512 μg/ml (Conc./MIC 1/2)
[33] = vancomycin 1024 μg/ml (Conc./MIC 1)
[34] = erythromycin 4 μg/ml (Conc./MIC 1/8)
[35] = erythromycin 8 μg/ml (Conc./MIC 1/4)
[36] = erythromycin 16 μg/ml (Conc./MIC 1/2)
[37] = erythromycin 32 μg/ml (Conc./MIC 1)
[38] = linezolid 32 μg/ml (Conc./MIC 1/8)
[39] = linezolid 64 μg/ml (Conc./MIC 1/4)

CC[C@H](C)[C@H](NC(=O)[C@H](CCCCN)NC(=O)[C@H](Cc1c[nH]c2ccccc12)NC(=O)[C@@H](N)CCCNC(=N)N)C(=O)N[C@@H](Cc1ccccc1)C(=O)N[C@@H](CCCCN)C(=O)N[C@@H](CCCCN)C(=O)N[C@H](C(=O)N1CCC[C@H]1C(=O)N[C@@H](CCCCN)C(=O)N[C@@H](Cc1ccccc1)C(=O)N[C@@H](CC(C)C)C(=O)N[C@@H](Cc1c[nH]cn1)C(=O)N[C@@H](CO)C(=O)N[C@@H](C)C(=O)N[C@@H](CCCCN)C(=O)N[C@@H](CCCCN)C(=O)N[C@@H](Cc1ccccc1)C(N)=O)[C@@H](C)CC [PapMA-1, RWK IFK KIP KFL HSA KKF-NH2] (H-RWKIFKKIPKFLHSAKKF-NH2; N-terminus assumed)
Minimal inhibitory concentration MIC [1]: 64 µg/mL (≈ 27.8 µM)
Minimal inhibitory concentration MIC [2]: 16 µg/mL (≈ 6.95 µM)
Minimal inhibitory concentration MIC [3]: 16 µg/mL (≈ 6.95 µM)
Minimal inhibitory concentration MIC [4]: 32 µg/mL (≈ 13.9 µM)
Minimal inhibitory concentration MIC [5]: 64 µg/mL (≈ 27.8 µM)
Peptide MIC, peptide alone [5]: 64 µg/mL
Minimal inhibitory concentration MIC [6]: 64 µg/mL (≈ 27.8 µM)
Peptide MIC, peptide alone [6]: 64 µg/mL
Minimal inhibitory concentration MIC [7]: 64 µg/mL (≈ 27.8 µM)
Minimal inhibitory concentration MIC [8]: 64 µg/mL (≈ 27.8 µM)
Minimal inhibitory concentration MIC [9]: 64 µg/mL (≈ 27.8 µM)
Minimal inhibitory concentration MIC [10]: >128 µg/mL
Minimal inhibitory concentration MIC [11]: >128 µg/mL
Minimal inhibitory concentration MIC [12]: >128 µg/mL
Minimal inhibitory concentration MIC [13]: >128 µg/mL
Minimal inhibitory concentration MIC [14]: >128 µg/mL
Antibiotic MIC, Erythromycin [15, 21]: 128 µg/mL
Antibiotic MIC, Linezolid [15, 21]: >128 µg/mL
Antibiotic MIC, Vancomycin [15, 21]: >128 µg/mL
Antibiotic MIC, Erythromycin [15, 22]: 32 µg/mL
Antibiotic MIC, Linezolid [15, 22]: 128 µg/mL
Antibiotic MIC, Vancomycin [15, 22]: >128 µg/mL
Antibiotic MIC, Erythromycin [15, 23]: 16 µg/mL
Antibiotic MIC, Linezolid [15, 23]: 64 µg/mL
Antibiotic MIC, Vancomycin [15, 23]: >128 µg/mL
Antibiotic MIC, Erythromycin [15, 24]: 8 µg/mL
Antibiotic MIC, Linezolid [15, 24]: 64 µg/mL
Antibiotic MIC, Vancomycin [15, 24]: >128 µg/mL
Antibiotic MIC, Erythromycin [15, 25]: 4 µg/mL
Antibiotic MIC, Linezolid [15, 25]: 32 µg/mL
Antibiotic MIC, Vancomycin [15, 25]: 128 µg/mL
Antibiotic MIC, Erythromycin [15, 26]: 1 µg/mL
Antibiotic MIC, Linezolid [15, 26]: 16 µg/mL
Antibiotic MIC, Vancomycin [15, 26]: 16 µg/mL
Antibiotic MIC, Erythromycin [15, 27]: 0.25 µg/mL
Antibiotic MIC, Linezolid [15, 27]: 8 µg/mL
Antibiotic MIC, Vancomycin [15, 27]: 8 µg/mL
Antibiotic MIC, Erythromycin [15, 28]: 0 µg/mL
Antibiotic MIC, Linezolid [15, 28]: 0 µg/mL
Antibiotic MIC, Vancomycin [15, 28]: 0 µg/mL
Erythromycin MIC during combined treatment with peptide [16, 21]: 32 µg/mL
Linezolid MIC during combined treatment with peptide [16, 21]: >128 µg/mL
Vancomycin MIC during combined treatment with peptide [16, 21]: >128 µg/mL
Erythromycin MIC during combined treatment with peptide [16, 22]: 32 µg/mL
Linezolid MIC during combined treatment with peptide [16, 22]: 128 µg/mL
Vancomycin MIC during combined treatment with peptide [16, 22]: >128 µg/mL
Erythromycin MIC during combined treatment with peptide [16, 23]: 16 µg/mL
Linezolid MIC during combined treatment with peptide [16, 23]: 64 µg/mL
Vancomycin MIC during combined treatment with peptide [16, 23]: 128 µg/mL
Erythromycin MIC during combined treatment with peptide [16, 24]: 4 µg/mL
Linezolid MIC during combined treatment with peptide [16, 24]: 32 µg/mL
Vancomycin MIC during combined treatment with peptide [16, 24]: 32 µg/mL
Erythromycin MIC during combined treatment with peptide [16, 25]: 0.5 µg/mL
Linezolid MIC during combined treatment with peptide [16, 25]: 16 µg/mL
Vancomycin MIC during combined treatment with peptide [16, 25]: 16 µg/mL
Erythromycin MIC during combined treatment with peptide [16, 26]: 0.25 µg/mL
Linezolid MIC during combined treatment with peptide [16, 26]: 8 µg/mL
Vancomycin MIC during combined treatment with peptide [16, 26]: 16 µg/mL
Erythromycin MIC during combined treatment with peptide [16, 27]: 0.125 µg/mL
Linezolid MIC during combined treatment with peptide [16, 27]: 4 µg/mL
Vancomycin MIC during combined treatment with peptide [16, 27]: 8 µg/mL
Erythromycin MIC during combined treatment with peptide [16, 28]: 0 µg/mL
Linezolid MIC during combined treatment with peptide [16, 28]: 0 µg/mL
Vancomycin MIC during combined treatment with peptide [16, 28]: 0 µg/mL
Peptide MIC [17, 29]: 0 µg/mL
Peptide MIC ([17]; with Linezolid […] (Conc./MIC 1)): 0 µg/mL
Peptide MIC ([17]; with Vancomycin 1024 μg/ml (Conc./MIC 1)): 0 µg/mL
Peptide MIC during treatment with antibiotic ([18]; erythromycin 32 μg/ml (Conc./MIC 1/8)): 2 µg/mL
Peptide MIC during treatment with antibiotic ([18]; erythromycin 64 μg/ml (Conc./MIC 1/4)): 1 µg/mL and 2 µg/mL
Peptide MIC during treatment with antibiotic ([18]; erythromycin […] (Conc./MIC 1)): 0 µg/mL
Peptide MIC during treatment with antibiotic ([18]; erythromycin […] (Conc./MIC 1/2)): 1 µg/mL
Peptide MIC during treatment with antibiotic [18, 30]: 2 µg/mL and 4 µg/mL
Peptide MIC during treatment with antibiotic [18, 31]: 0 µg/mL
Peptide MIC during treatment with antibiotic ([18]; linezolid […] (Conc./MIC 1/2)): 1 µg/mL
Peptide MIC during treatment with antibiotic ([18]; linezolid […] (Conc./MIC 1/4)): 2 µg/mL
Peptide MIC during treatment with antibiotic [18, 32]: 2 µg/mL
Peptide MIC during treatment with antibiotic [18, 33]: 1 µg/mL
Peptide MIC during treatment with antibiotic ([18]; vancomycin […] (Conc./MIC 1/4)): 4 µg/mL
Peptide MIC during treatment with antibiotic ([18]; vancomycin […] (Conc./MIC 1/8)): 8 µg/mL
Peptide MIC [18, 29]: 0 µg/mL
Peptide MIC ([18]; with Linezolid 512 μg/ml (Conc./MIC 1)): 0 µg/mL
Peptide MIC during treatment with antibiotic [19, 34]: 4 µg/mL
Peptide MIC during treatment with erythromycin [19, 34]: 4 µg/mL
Peptide MIC during treatment with antibiotic [19, 35]: 4 µg/mL
Peptide MIC during treatment with erythromycin [19, 35]: 4 µg/mL
Peptide MIC during treatment with antibiotic [19, 36]: 2 µg/mL
Peptide MIC during treatment with erythromycin [19, 36]: 2 µg/mL
Peptide MIC during treatment with antibiotic [19, 37]: 0 µg/mL
Peptide MIC during treatment with erythromycin [19, 37]: 0 µg/mL
Peptide MIC during treatment with antibiotic [19, 38]: 4 µg/mL
Peptide MIC during treatment with linezolid [19, 38]: 4 µg/mL
Peptide MIC during treatment with antibiotic [19, 39]: 4 µg/mL
Peptide MIC during treatment with linezolid [19, 39]: 4 µg/mL
Peptide MIC during treatment with antibiotic ([19]; linezolid […] (Conc./MIC 1)): 0 µg/mL
Peptide MIC during treatment with linezolid ([19]; linezolid […] (Conc./MIC 1)): 0 µg/mL
Peptide MIC during treatment with antibiotic ([19]; linezolid […] (Conc./MIC 1/2)): 0.5 µg/mL
Peptide MIC during treatment with linezolid ([19]; linezolid […] (Conc./MIC 1/2)): 0.5 µg/mL
Peptide MIC during treatment with antibiotic [19, 32]: 0.25 µg/mL
Peptide MIC during treatment with vancomycin [19, 32]: 0.25 µg/mL
Peptide MIC during treatment with antibiotic [19, 33]: 0 µg/mL
Peptide MIC during treatment with vancomycin [19, 33]: 0 µg/mL
Peptide MIC during treatment with antibiotic ([19]; vancomycin […] (Conc./MIC 1/4)): 0.5 µg/mL
Peptide MIC during treatment with vancomycin ([19]; vancomycin […] (Conc./MIC 1/4)): 0.5 µg/mL
Peptide MIC during treatment with antibiotic ([19]; vancomycin […] (Conc./MIC 1/8)): 4 µg/mL
Peptide MIC during treatment with vancomycin ([19]; vancomycin […] (Conc./MIC 1/8)): 4 µg/mL
Peptide MIC during treatment with erythromycin [20, 34]: 4 µg/mL
MIC of peptide in combination as fraction of the MIC of the peptide alone ([20]; erythromycin 8 μg/ml): 1/16
MIC value of peptide during combined treatment with erythromycin ([20]; erythromycin 8 μg/ml (1/4 of its MIC)): 4 µg/mL
Peptide MIC during treatment with erythromycin [20, 35]: 4 µg/mL
Peptide MIC during treatment with erythromycin [20, 36]: 4 µg/mL
Peptide MIC during treatment with erythromycin [20, 37]: 0 µg/mL
Peptide MIC during treatment with linezolid [20, 30]: 4 µg/mL
Peptide MIC during treatment with linezolid [20, 31]: 0 µg/mL
Peptide MIC during treatment with linezolid ([20]; linezolid […] (Conc./MIC 1/2)): 1 µg/mL
Peptide MIC during treatment with linezolid ([20]; linezolid […] (Conc./MIC 1/4)): 4 µg/mL
Peptide MIC during treatment with vancomycin [20, 32]: 2 µg/mL
Peptide MIC during treatment with vancomycin [20, 33]: 1 µg/mL
Peptide MIC during treatment with vancomycin ([20]; vancomycin […] (Conc./MIC 1/4)): 4 µg/mL
Peptide MIC during treatment with vancomycin ([20]; vancomycin […] (Conc./MIC 1/8)): 4 µg/mL
